Results on 4 compounds are retold here after ChEMBL document CHEMBL1133212, “An enantioselective synthesis and biobehavioral evaluation of 7-fluoro-3-(p-fluorophenyl)-2-propyltropanes” (Bioorg Med Chem Lett, 2000).

Test [1] has as its target T1, Sodium-dependent dopamine transporter (Rattus norvegicus, UniProt P23977). In words: ability to displace [3H]- Mazindol binding to cocaine binding sites on Dopamine transporter of rat striatal membranes. Also noted: species or system Striatum, Membrane.
For test [2], the target named is Sodium-dependent serotonin transporter (Rattus norvegicus, UniProt P31652). Briefly: Compound was tested for its ability to inhibit high affinity uptake of [3H]5-HT into mid brain nerve endings (synaptosomes) in rat. The format is subcellular.
Test [3] deals with T1, Sodium-dependent dopamine transporter. In words: Compound was tested for its ability to inhibit high affinity uptake of [3H]DA into rat striatal membrane. Also noted: species or system Striatum.
The target of test [4] is Norepinephrine transporter (Rattus norvegicus, UniProt Q9WTR4). Briefly: Compound was tested for its ability to inhibit high-affinity uptake of [3H]NE into parietal and occipital cortex in rat.
In another test the test system is Rattus norvegicus. Briefly: Percent reduction in cocaine induced reward enhancement after administration of compound at 5 mg/kg or 10 mg/kg combined with 10 mg/kg of cocaine intraperitoneally in rats. The class given is functional.
Test [5] deals with T1, Sodium-dependent dopamine transporter. In words: Binding affinity to a single, sodium-dependent site on the Dopamine transporter in rat striatal membranes. The class given is cell membranes, Striatum, Membrane.

T1 sequence (P23977 whole entry): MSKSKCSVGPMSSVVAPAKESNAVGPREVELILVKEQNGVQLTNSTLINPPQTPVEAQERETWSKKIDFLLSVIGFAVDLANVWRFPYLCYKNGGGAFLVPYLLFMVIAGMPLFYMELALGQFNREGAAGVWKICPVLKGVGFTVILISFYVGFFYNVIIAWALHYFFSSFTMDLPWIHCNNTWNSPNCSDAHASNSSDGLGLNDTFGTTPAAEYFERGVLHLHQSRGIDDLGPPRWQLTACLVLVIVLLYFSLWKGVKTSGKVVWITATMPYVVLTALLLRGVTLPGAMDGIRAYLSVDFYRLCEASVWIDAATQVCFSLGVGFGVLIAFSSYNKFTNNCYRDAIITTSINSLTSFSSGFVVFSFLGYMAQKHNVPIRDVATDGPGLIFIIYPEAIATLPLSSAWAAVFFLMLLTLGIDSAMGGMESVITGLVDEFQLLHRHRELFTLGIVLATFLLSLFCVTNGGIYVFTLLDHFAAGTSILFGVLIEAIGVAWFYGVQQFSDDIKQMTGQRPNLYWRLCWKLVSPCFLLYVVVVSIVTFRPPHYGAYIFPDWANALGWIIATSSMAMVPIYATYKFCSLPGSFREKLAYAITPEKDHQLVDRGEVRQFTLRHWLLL
Sequence of Sodium-dependent serotonin transporter (P31652 whole entry): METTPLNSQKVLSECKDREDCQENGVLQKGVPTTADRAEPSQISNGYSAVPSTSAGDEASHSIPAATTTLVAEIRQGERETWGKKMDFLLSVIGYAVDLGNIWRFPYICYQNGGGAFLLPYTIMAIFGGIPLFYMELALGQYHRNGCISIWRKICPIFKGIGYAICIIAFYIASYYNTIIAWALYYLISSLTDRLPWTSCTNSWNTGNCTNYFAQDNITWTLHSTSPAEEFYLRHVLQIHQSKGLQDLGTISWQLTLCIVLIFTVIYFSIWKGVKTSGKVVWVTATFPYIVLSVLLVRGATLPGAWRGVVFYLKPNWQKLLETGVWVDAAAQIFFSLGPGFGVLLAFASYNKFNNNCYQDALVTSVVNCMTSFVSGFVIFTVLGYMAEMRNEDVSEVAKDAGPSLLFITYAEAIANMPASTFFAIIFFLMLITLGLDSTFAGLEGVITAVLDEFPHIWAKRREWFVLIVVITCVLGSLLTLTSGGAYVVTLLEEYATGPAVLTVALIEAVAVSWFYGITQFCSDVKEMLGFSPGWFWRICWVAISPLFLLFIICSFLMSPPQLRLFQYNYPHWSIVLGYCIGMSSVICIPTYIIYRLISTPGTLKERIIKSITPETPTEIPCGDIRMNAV
Sequence of Norepinephrine transporter (Q9WTR4 whole entry): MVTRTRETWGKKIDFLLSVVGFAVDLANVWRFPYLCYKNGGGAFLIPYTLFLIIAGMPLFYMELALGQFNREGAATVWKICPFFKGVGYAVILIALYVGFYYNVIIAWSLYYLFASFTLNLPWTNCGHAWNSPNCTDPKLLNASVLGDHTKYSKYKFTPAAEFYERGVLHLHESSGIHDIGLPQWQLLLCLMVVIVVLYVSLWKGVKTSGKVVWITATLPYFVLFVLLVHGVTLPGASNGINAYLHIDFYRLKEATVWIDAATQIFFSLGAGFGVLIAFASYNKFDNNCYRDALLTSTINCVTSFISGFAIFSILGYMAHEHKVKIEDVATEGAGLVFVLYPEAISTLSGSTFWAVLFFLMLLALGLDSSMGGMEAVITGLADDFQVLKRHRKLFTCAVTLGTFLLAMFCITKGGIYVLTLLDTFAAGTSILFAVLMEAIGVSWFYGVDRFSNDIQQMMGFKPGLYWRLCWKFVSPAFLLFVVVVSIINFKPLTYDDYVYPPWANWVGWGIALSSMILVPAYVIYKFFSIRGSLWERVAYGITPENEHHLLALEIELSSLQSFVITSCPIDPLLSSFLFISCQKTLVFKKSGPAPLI

Turning to `CCCC1C(c2ccc(F)cc2)CC2CC(F)(F)C1N2C` (stereo not drawn), the Ki (usually a dissociation constant, usually derived from enzyme kinetics or from competition with a known ligand) in test [1] worked out at 860 nM; in test [2], 7910 nM; in test [3] it was 1450 nM; in test [4], 3790 nM.

In the case of `CCCC1C(c2ccc(F)cc2)CC2C[C@H](F)C1N2C` (stereo partly drawn), the Reduction in the test on Rattus norvegicus was determined as 60%. For the same compound, the Ki in test [2] is 561 nM; in test [3], 49 nM; in test [4], 52 nM.

As to `CCCC1C(c2ccc(F)cc2)CC2C[C@@H](F)C1N2C` (stereo partly drawn), the Ki is 1150 nM in test [1], 1250 nM in test [2], 304 nM in test [3] and 126 nM in test [4].

Regarding `OC1(c2ccc(Cl)cc2)c2ccccc2C2=NCCN21` (stereo not drawn) [MAZINDOL], in test [5], binding was put at a Kd of 8.63 nM.
